Values of other authors, collected in patent EP0501250A1, “Fucose-marked batracylin derivatives” (BAYER AG, priority 1991, dated 1992).

Columns and labels:
[1] = tested on: Colon-38-Modell; settings: Colon-38-Modell an der Maus
[2] = prior-art statement

In the case of `Nc1ccc2c(c1)CN1C(=O)c3ccccc3C1=N2` [Batracylin], the Antitumorwirkung [1] is listed as “ausgezeichnete Antitumorwirkung” and the “Löslichkeit in wasserhaltigen Lösungsmitteln” value [2] is listed as “geringe Löslichkeit”.
